Assay results taken from publication PMC7217817 (Clinical Pharmacokinetics, 2019).
Read-outs that look alike come from different tables or passages of the source.

Key:
[1] = test system: P-gp; conditions: cited from earlier work; for Mean AUC∞ ratio of victim drug / Mean Cmax ratio of victim drug: Observed
[2] = test system: CYP3A; conditions: cited from earlier work
[3] = target: T1, P-gp (Homo sapiens, UniProt P08183); conditions: in vitro and clinical studies; cited from earlier work
[4] = cited from earlier work
[5] = Child–Pugh A patients compared with healthy volunteers; cited from earlier work
[6] = single-dose elagolix 150 mg with ketoconazole 400 mg, Observed; cited from earlier work
[7] = Clinical multiple-dose pharmacokinetics of elagolix in healthy subjects; format: in vivo, human; conditions: for AUCτ / CL/F / Cmax: healthy subjects
[8] = target: T1, P-gp; experiment: P-gp inhibition; format: in vitro ADME; conditions: following administration of 150 or 200 mg of elagolix
[9] = digoxin day 1 with elagolix 200 mg BID
[10] = digoxin day 10 with elagolix 200 mg BID
[11] = midazolam with elagolix 150 mg QD, Observed
[12] = 150 mg QD (N = 6), Day 21, Observed
[13] = 200 mg BID (N = 7), Day 21, Observed

T1 sequence (P08183 whole entry): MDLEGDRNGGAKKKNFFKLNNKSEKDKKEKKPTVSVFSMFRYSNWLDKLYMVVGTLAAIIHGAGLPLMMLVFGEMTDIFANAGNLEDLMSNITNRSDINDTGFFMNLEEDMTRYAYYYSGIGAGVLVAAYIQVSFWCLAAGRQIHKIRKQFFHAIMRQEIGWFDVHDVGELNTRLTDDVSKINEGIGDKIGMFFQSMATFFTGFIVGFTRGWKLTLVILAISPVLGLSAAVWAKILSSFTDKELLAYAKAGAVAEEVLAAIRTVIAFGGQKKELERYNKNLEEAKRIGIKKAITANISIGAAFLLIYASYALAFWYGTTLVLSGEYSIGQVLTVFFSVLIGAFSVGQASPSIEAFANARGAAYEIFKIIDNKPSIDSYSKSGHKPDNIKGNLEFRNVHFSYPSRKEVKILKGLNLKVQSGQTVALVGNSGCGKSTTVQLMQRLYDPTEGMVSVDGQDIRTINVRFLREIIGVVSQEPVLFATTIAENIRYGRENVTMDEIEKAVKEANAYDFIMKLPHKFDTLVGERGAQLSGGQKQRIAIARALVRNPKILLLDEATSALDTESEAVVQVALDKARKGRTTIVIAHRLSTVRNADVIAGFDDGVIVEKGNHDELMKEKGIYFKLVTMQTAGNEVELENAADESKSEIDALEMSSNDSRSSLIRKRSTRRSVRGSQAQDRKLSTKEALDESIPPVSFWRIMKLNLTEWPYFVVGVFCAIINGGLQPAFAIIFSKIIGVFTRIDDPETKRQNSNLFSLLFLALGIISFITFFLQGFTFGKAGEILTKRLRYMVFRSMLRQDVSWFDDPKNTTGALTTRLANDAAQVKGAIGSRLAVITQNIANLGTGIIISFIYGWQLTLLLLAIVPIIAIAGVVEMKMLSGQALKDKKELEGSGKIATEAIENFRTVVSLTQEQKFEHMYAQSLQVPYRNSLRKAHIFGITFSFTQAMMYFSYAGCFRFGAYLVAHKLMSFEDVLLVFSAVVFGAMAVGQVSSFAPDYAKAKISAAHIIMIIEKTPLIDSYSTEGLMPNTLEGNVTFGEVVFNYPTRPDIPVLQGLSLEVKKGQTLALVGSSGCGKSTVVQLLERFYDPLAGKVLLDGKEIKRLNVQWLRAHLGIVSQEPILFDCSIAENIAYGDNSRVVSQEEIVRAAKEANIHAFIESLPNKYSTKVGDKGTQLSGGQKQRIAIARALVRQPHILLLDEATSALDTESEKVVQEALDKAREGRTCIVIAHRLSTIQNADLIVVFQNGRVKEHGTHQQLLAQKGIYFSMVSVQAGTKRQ

C[C@H]1O[C@@H](O[C@H]2[C@@H](O)C[C@H](O[C@H]3[C@@H](O)C[C@H](O[C@H]4CC[C@@]5(C)[C@H](CC[C@@H]6[C@@H]5C[C@@H](O)[C@]5(C)[C@@H](C7=CC(=O)OC7)CC[C@]65O)C4)O[C@@H]3C)O[C@@H]2C)C[C@H](O)[C@@H]1O [Digoxin, digoxin]
Mean AUC∞ ratio of victim drug [1, 9]: 1.32
Mean Cmax ratio of victim drug [1, 9]: 1.73
Mean AUC∞ ratio of victim drug [1, 10]: 1.26
Mean Cmax ratio of victim drug [1, 10]: 1.71
Increase in digoxin AUC ([1]; elagolix 200 mg BID, observed): ~30%
Increase in digoxin Cmax ([1]; elagolix 200 mg BID, observed): approximately 70%

Cc1ncc2n1-c1ccc(Cl)cc1C(c1ccccc1F)=NC2 [Midazolam, midazolam]
Decrease in midazolam AUC ([2]; elagolix 150 mg QD, observed): 35%
Mean AUC∞ ratio of victim drug [2, 11]: 0.65
Mean Cmax ratio of victim drug [2, 11]: 0.81

CO[C@H]1/C=C/O[C@@]2(C)Oc3c(C)c(O)c4c(O)c(c(/C=N/N5CCN(C)CC5)c(O)c4c3C2=O)NC(=O)/C(C)=C\C=C\[C@H](C)[C@H](O)[C@@H](C)[C@@H](O)[C@@H](C)[C@H](OC(C)=O)[C@@H]1C [Rifampin, rifampin]
Induction of P-gp expression [3]: four folds

COc1cccc(-c2c(C)n(Cc3c(F)cccc3C(F)(F)F)c(=O)n(C[C@H](NCCCC(=O)O)c3ccccc3)c2=O)c1F [elagolix]
Apparent terminal elimination half-life (t½) ([4]; clinical doses of 150 mg QD and 200 mg BID): 4 to 6 h
Time of maximum plasma concentration (Cmax) after dosing ([4]; oral administration): 1 h
Impact of hepatic impairment on elagolix exposures [5]: no impact
Mean Cmax ratio of elagolix [6]: 1.77
AUCτ ([7]; 150 mg QD (N = 6), Day 1, Observed): 1331 ng●h/mL
AUCτ [7, 12]: 1292 ng●h/mL
CL/F [7, 12]: 123 L/h
AUCτ ([7]; 200 mg BID (N = 7), Day 1, Observed): 1813 ng●h/mL
AUCτ [7, 13]: 1725 ng●h/mL
CL/F [7, 13]: 144 L/h
Tmax ([7]; human, plasma, oral, 150 mg): 1.3 h
half-life ([7]; human, plasma, oral, 150 mg): 6.42 h
Cmax ([7]; human, plasma, oral, 150 mg, 150 mg QD (N = 6), Day 1, Observed): 507 ng/mL
half-life ([7]; human, plasma, oral, 200 mg): 4.29 h
Cmax ([7]; human, plasma, oral, 200 mg, 200 mg BID (N = 7), Day 1, Observed): 712 ng/mL
Ki for P-gp below predicted intestinal elagolix concentration in the gastrointestinal lumen [8]: approximately 500 fold
